According to ChEMBL document CHEMBL1250475, “Inhibition of monoamine oxidase by indole and benzofuran derivatives” (Eur J Med Chem, 2010):

Legend:
[1] = biological target: T1, Amine oxidase [flavin-containing] A (Homo sapiens, UniProt P21397); experiment: Inhibition of human recombinant MAOA expressed in baculovirus infected BTI insect cells after 20 mins by spectrofluorimetric analysis
T1 sequence (P21397 whole entry): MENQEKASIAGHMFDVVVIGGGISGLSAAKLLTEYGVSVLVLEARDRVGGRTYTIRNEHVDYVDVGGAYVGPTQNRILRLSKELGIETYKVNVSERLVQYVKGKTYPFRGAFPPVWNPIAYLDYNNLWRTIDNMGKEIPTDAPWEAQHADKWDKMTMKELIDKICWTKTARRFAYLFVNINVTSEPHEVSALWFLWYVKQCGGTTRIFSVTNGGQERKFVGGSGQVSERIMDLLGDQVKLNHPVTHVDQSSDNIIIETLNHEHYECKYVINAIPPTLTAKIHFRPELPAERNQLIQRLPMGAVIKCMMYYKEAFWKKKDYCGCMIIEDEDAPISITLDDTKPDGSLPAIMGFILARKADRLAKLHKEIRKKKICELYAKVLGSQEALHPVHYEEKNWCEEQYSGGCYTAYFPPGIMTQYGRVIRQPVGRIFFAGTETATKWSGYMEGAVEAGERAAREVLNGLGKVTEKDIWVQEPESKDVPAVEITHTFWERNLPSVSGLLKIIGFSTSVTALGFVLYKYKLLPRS

[2] = biological target: T2, Amine oxidase [flavin-containing] B (Homo sapiens, UniProt P27338); experiment: Inhibition of human recombinant MAOB expressed in baculovirus infected BTI insect cells after 20 mins by spectrofluorimetric analysis
T2 sequence (P27338 whole entry): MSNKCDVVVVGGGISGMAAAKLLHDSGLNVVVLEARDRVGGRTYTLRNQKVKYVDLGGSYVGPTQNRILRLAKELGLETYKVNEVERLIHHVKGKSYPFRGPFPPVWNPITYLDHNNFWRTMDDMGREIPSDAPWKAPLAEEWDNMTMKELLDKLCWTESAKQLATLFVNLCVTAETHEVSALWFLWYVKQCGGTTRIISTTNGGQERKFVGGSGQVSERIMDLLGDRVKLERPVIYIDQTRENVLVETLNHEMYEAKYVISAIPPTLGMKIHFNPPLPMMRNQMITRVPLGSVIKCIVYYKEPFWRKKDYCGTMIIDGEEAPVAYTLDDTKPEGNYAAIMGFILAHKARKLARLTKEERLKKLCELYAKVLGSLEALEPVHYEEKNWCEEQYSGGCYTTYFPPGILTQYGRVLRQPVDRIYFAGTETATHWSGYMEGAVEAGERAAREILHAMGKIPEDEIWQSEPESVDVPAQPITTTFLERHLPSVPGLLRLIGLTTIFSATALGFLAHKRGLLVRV

[3] = species on record: Homo sapiens; experiment: Selectivity ratio of Ki for human recombinant MAOA to Ki for human recombinant MAOB
[4] = biological target: T2, Amine oxidase [flavin-containing] B; experiment: Reversible inhibition of human recombinant MAOB expressed in baculovirus infected BTI insect cells at 2 times IC50 concentration preincubated for 60 mins measured after 15 mins; details: 0.25 h
[5] = biological target: T2, Amine oxidase [flavin-containing] B; experiment: Competitive inhibition of human recombinant MAOB expressed in baculovirus infected BTI insect cells at 0.015 to 0.06 uM by Lineweaver-Burke plot analysis

Row | Structure (SMILES) | IC50 [1] [µM] | Ki [1] [µM] | IC50 [2] [µM] | Ki [2] [µM] | Selectivity ratio [3] | inhibition (INH) [4] | inhibition (INH) [5]
1 | Cc1cc2cc(NC(=O)c3ccc[n+](C)c3)ccc2[nH]1 | 20.8 | 5.47 | – | – | – | – | –
2 | Cc1cc2cc(NC(=O)C3CCCCC3)ccc2[nH]1 | 69.4 | 18.3 | 6.96 | 3 | 6 | – | –
3 | O=C(/C=C/c1cccc(Cl)c1)Oc1ccc2c(c1)CC(=O)O2 | 3.9 | 1.03 | 0.44 | 0.19 | 5 | – | –
4 | Cc1cc2cc(NC(=O)/C=C/c3ccccc3)ccc2[nH]1 | 663 | 175 | 18.8 | 8.01 | 22 | – | –
5 | O=C(/C=C/c1ccccc1)Oc1ccc2c(c1)CC(=O)O2 | 12.5 | 3.29 | 1.2 | 0.52 | 6 | – | –
6 | O=C1Cc2cc(OC(=O)c3ccccc3)ccc2O1 | 11.6 | 3.05 | 8.89 | 3.83 | 0.8 | – | –
7 | O=C1Cc2cc(OC(=O)c3cccc(Cl)c3)ccc2O1 | 7.66 | 2.02 | 0.99 | 0.43 | 5 | Active | –

Continued, values first:

Row | IC50 [1] [µM] | Ki [1] [µM] | IC50 [2] [µM] | Ki [2] [µM] | Selectivity ratio [3] | inhibition (INH) [4] | inhibition (INH) [5] | Structure (SMILES)
8 | 31 | 8.18 | 0.76 | 0.33 | 25 | – | – | Cc1cc2cc(NC(=O)c3cccc(Cl)c3)ccc2[nH]1
9 | 9.79 | 2.58 | 0.06 | 0.03 | 99 | Active | Active | Cc1cc2cc(NC(=O)c3ccc(Cl)c(Cl)c3)ccc2[nH]1
10 | 7.67 | 2.02 | 9.83 | 4.23 | 0.5 | – | – | Cc1cc2cc(NC(=O)/C=C/c3cccc(Cl)c3)ccc2[nH]1
11 | 150 | 39.5 | 3.84 | 1.65 | 24 | – | – | Cc1cc2cc(NC(=O)c3ccccc3)ccc2[nH]1
12 | 259 | 68.3 | 176 | 75.7 | 0.9 | – | – | Cc1cc2cc(NC(=O)c3cccc(S(=O)(=O)O)c3)ccc2[nH]1
